“And” between values parts separate entries of the source, which are not always exact repeats. Equal values may be shown once. Where a name gives a salt, the structure may show the parent alone. Read-outs that look alike come from different tables or passages of the source.

For test [1], the target named is T1, recombinant DltA from S. epidermidis (Staphylococcus epidermidis, UniProt Q5HQN0).
T1 construct: made in house; host or cells: E. coli
T1 sequence (Q5HQN0 1-485): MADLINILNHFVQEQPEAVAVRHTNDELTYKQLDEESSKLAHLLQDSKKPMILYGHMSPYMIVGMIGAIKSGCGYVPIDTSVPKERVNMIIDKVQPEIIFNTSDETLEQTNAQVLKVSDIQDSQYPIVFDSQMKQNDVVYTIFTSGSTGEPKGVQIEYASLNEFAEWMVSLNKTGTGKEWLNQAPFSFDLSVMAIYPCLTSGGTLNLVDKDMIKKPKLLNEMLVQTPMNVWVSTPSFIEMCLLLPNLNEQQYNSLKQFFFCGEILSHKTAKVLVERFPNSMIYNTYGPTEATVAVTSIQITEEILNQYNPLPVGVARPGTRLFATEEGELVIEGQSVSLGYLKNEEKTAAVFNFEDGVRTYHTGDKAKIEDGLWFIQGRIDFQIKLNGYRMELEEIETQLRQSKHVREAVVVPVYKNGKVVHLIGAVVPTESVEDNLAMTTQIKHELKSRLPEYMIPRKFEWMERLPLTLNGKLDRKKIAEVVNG
Briefly: DltA enzyme inhibition, PPi release coupled-enzyme assay. In kind it is biochemical. On the procedure: All new compounds were then evaluated in vitro for enzyme inhibition against recombinant DltA from E. faecalis or S. epidermis. Half-maximal inhibitory concentrations (IC50) were then determined by measuring the amount of PPi released at different inhibitor concentrations (Table 2). […] We noticed the DltA enzyme tolerated the presence of various modifications on the 2′-position, but the activity was inversely related to the size of the introduced group. […] Despite a good predicted binding affinity (−8.7 Kcal/mol), we hypothesize that the lower activity could be explained by the fact that the squaramide nitrogen atom might not be under its anionic form, as is the case with sulfamate 1.
The DltA-catalyzed ATP-hydrolysis reaction was monitored in vitro via PPi release (DltA +D-alanine +ATP → DltA-DAla-AMP +PPi) using a coupled-enzyme assay. The purified DltA was pretreated with DltC purified from E. coli to clear D-Ala-AMP already present in the enzyme preparation after expression in E. coli. Holo-DltC is the natural protein partner of DltA, and DltC purified from E. coli BL21 (DE3) contained 51% of this active form of DltC as determined by HPLC analysis. DltA was pretreated with DltC (ratio 1:1.2), incubated for 30 min at 37 °C and 30 min at 4 °C. Three successive washes were realized on Amicon Ultra-2 Centrifugal Filter Unit—Ultracel 30 membrane 30 kDa MWCO (Merck, Darmstadt, Germany) with elution buffer EB at 4 °C. The components of the coupled enzyme assay included 1.5 μM pre-treated DltA, 20 μM of ATP, and 14 μM of D-alanine. The half-maximal inhibitory concentration (IC50) of potential DltA inhibitors was determined by the addition of different concentrations of the synthesized molecules. PPi release was determined using the PiPer—Pyrophosphate assay kit (Invitrogen, Waltham, MA, USA) according to the recommendation of the supplier. Reactions were carried out in 96-well Chimney Style, non-binding Microplates with μClear Film Bottom (Greiner Bio-one, Frickenhausen, Germany). Plates were incubated at 37 °C for 5 h and read in a FlexStation 3 Multi-Mode plate reader (Molecular Devices, Silicon Valley, CA, USA), with λ excitation of 530 nm and λ emission of 590 nm. Experiments were conducted in sextuplicate, and the IC50 was determined by linear regression of the curve.

The next test has as its system MRSA clinical isolates. Briefly: MIC of imipenem against MRSA in absence or presence of DltA inhibitor. In kind it is cell-based, S. aureus. To be noted: for MIC: Staphylococcus aureus, MRSA. On the procedure:
(§1) All these compounds were also tested […] against MRSA clinical isolates. […] The minimum inhibitory concentrations (MICs) of imipenem (IPM) were next determined in the absence or presence of 1 mM of the different DltA inhibitors to evaluate their potential to re-sensitize MRSA to this β-lactam (Table 2). […] To clarify this hypothesis, quantification of D-alanyl ester of the MRSA cell wall was performed as previously described in the presence of inhibitors (Table 2). […] These new series represent a promising structure entry not reported yet for the inhibition of DltA and the re-sensitization of bacteria toward known antibiotics.
Colonies from BHI agar plates were suspended in saline solution (0.9% NaCl) and adjusted to an OD600 of 0.5. For growth kinetics determination, 96-well microplates (Starlab, Orsay, France) containing 200 μL of fresh BHI medium were inoculated with bacterial suspensions to an OD600 of 0.02 with a wide range of DltA inhibitors (from 0 to 2 mM). Plates were incubated at 37 °C with shaking (orbital amplitude of 3 mm) in a microplate reader (InfiniteM Nano, Tecan, Seoul, Republic of Korean). OD600nm was measured every 10 min for 24 h. Determination of MIC/MBC of antibiotics and bacterial survival assays were performed as previously described using BHI medium. The DltA inhibitor was diluted in pure water and added to the growth medium to a final concentration of 0, 0.1, 0.25, 0.5, 0.75, or 1 mM.

For test [2], the system named is D-alanyl ester of the MRSA cell wall. The test is described as follows: Quantification of D-alanyl ester in the bacterial cell wall. To be noted: inhibitor at 1 mM, value (spread). In kind it is cell-based, S. aureus. The procedure:
as §1
Ester-linked D-alanines were quantified as described previously, with the following modifications. Cultures were grown in 5 mL of BHI supplemented with DltA inhibitor to a final concentration of 0.05, 0.1, 0.25, 0.5, 0.75, or 1 mM for 16 h at 37 °C under shaking (120 rpm). Briefly, the quantification is based on the oxidation of a chromogen by H2O2 generated when free D-alanines are oxidized by a D-amino acid oxidase. Three independent experiments with duplicate samples were performed.

Setting [3] is: S. aureus (MRSA), in presence of 1 mM of the DltA inhibitor.
Setting [4] is: S. aureus (MRSA), in presence of 1 mM of the DltA inhibitor, read-out: MIC of IPM.

Consider `C[C@@H](N)C(=O)NS(=O)(=O)OC[C@H]1O[C@@H](n2cnc3c(N)ncnc32)[C@H](n2cc(CO[C@@H]3O[C@H](CO)[C@@H](O)[C@H](O)[C@H]3O)nn2)[C@@H]1O` [Compound 11, ((2R,3S,4R,5R)-5-(6-amino-9H-purin-9-yl)-3-hydroxy-4-(4-((((2R,3R,4S,5S,6R)-3,4,5-trihydroxy-6-(hydroxymethyl)tetrahydro-2H-pyran-2-yl)oxy)methyl)-1H-1,2,3-triazol-1-yl)tetrahydrofuran-2-yl)methyl (D-alanyl)sulfamate salt], for which the IC50 in test [1] amounted to 39.5 µM. The “MIC of IPM” value in the test with MRSA clinical isolates (setting [3]) was 32 µg/mL. Further, the minimum inhibitory concentration (MIC) in the test with MRSA clinical isolates (setting [4]) was in the range of 16 to 64 µg/mL. Besides, the “Reduction in D-Ala Ester Residues” value in test [2] stood at 0%.
For `CC(C)OP(=O)(OC(C)C)C(F)(F)/C=C/CO[C@@H]1[C@H](O)[C@@H](COS(=O)(=O)NC(=O)[C@@H](C)N)O[C@H]1n1cnc2c(N)ncnc21` [Compound 18, ((2R,3R,4R,5R)-5-(6-amino-9H-purin-9-yl)-4-(((E)-4-(diisopropoxyphosphoryl)-4,4-difluorobut-2-en-1-yl)oxy)-3-hydroxytetrahydrofuran-2-yl)methyl (D-alanyl)sulfamate salt], the half-inhibitory concentration (IC50) in test [1] was 7.6 µM. In addition, the minimal inhibitory concentration (MIC) in the test on MRSA clinical isolates (read-out: MIC of IPM, S. aureus (MRSA), in presence of 1 mM of the DltA inhibitor) was determined as 0.25 µg/mL. Besides, the “Reduction in D-Ala Ester Residues” value in test [2] was 51.5% and 51.5 (14.2) %.
As to `C[C@@H](N)C(=O)NS(=O)(=O)NC/C(CF)=C(\F)Cn1cnc2c(N)ncnc21` [Compound 38, (R,E)-2-amino-N-(N-(4-(6-amino-9H-purin-9-yl)-3-fluoro-2-(fluoromethyl)but-2-en-1-yl)sulfamoyl)propenamide salt], the IC50 was above 100 µM in test [1] and “complete loss of the activity” in test [1] (Dlt from S. epidermidis, PPi release, value (spread)). The “MIC of IPM” value with MRSA clinical isolates (setting [3]) came to 32 µg/mL. In addition, the MIC in the test with MRSA clinical isolates (setting [4]) is 16 to 64 µg/mL. Further, the “Reduction in D-Ala Ester Residues” value in test [2] worked out at 2%.
On to `CCCCCCC(=O)N[C@H](C)C(=O)c1cn(C[C@H]2O[C@@H](n3cnc4c(N)ncnc43)[C@H](O)[C@@H]2O)nn1` [Compound 51, N-((R)-1-(1-(((2R,3S,4R,5R)-5-(6-amino-9H-purin-9-yl)-3,4-dihydroxytetrahydrofuran-2-yl)methyl)-1H-1,2,3-triazol-4-yl)-1-oxopropan-2-yl)heptanamide salt], for which the IC50 in test [1] was 22.2 µM. The “MIC of IPM” value in the test with MRSA clinical isolates (setting [3]) is 16 µg/mL. The minimal inhibitory concentration (MIC) with MRSA clinical isolates (setting [4]) lay within 16 to 64 µg/mL. In test [2], the “Reduction in D-Ala Ester Residues” value is given as 22.2 (5.0) %.
Turning to `C[C@@H](NC(=O)c1ccc(-c2ccccc2)cc1)C(=O)c1cn(C[C@H]2O[C@@H](n3cnc4c(N)ncnc43)[C@H](O)[C@@H]2O)nn1` [Compound 52, N-((R)-1-(1-(((2R,3S,4R,5R)-5-(6-amino-9H-purin-9-yl)-3,4-dihydroxytetrahydrofuran-2-yl)methyl)-1H-1,2,3-triazol-4-yl)-1-oxopropan-2-yl)-[1,1′-biphenyl]-4-carboxamide salt], the IC50 in test [1] turned out to be 12.4 µM. In addition, the MIC with MRSA clinical isolates (setting [4]) amounted to 8 µg/mL. Besides, the “Reduction in D-Ala Ester Residues” value in test [2] was 16% and 16.0 (4.2) %.
Regarding `CCCCCCOc1ccc(C(=O)N[C@H](C)C(=O)c2cn(C[C@H]3O[C@@H](n4cnc5c(N)ncnc54)[C@H](O)[C@@H]3O)nn2)cc1` [Compound 53, N-((R)-1-(1-(((2R,3S,4R,5R)-5-(6-amino-9H-purin-9-yl)-3,4-dihydroxytetrahydrofuran-2-yl)methyl)-1H-1,2,3-triazol-4-yl)-1-oxopropan-2-yl)-4-(hexyloxy)benzamide salt], the IC50 in test [1] is 16 µM. For the same molecule, in the test with MRSA clinical isolates (setting [3]), the “MIC of IPM” value was 16 µg/mL. In addition, the minimal inhibitory concentration (MIC) in the test on MRSA clinical isolates (setting [4]) is 16 to 64 µg/mL. In addition, the “Reduction in D-Ala Ester Residues” value in test [2] is on record as 12.5 (14.0) %.
Consider `C[C@@H](O)[C@H]1C(=O)N2C(C(=O)O)=C(SCCN=CN)C[C@H]12` [IPM, imipenem, reference compound], for which the MIC in the test on MRSA clinical isolates (tested MRSA strain, no inhibitor, read-out: MIC of IPM in the absence of an inhibitor) amounted to 32 µg/mL.

A word on the IC50: it is the concentration needed to halve the response being measured. The term MIC denotes the least concentration at which growth counts as inhibited.

These data come from article PMC12196251, “Synthesis of New DltA Inhibitors and Their Application as Adjuvant Antibiotics to Re-Sensitize Methicillin-Resistant Staphylococcus aureus” (Molecules, 2025).
